According to ChEMBL document CHEMBL1201862, “PubChem BioAssay data set” (2004):
The source made the active and inactive calls.

Columns and labels:
[1] = Vero E6 cell cytotoxicity, dose response, cytotoxicity control for non-replicating M. tuberculosis project, secondary assay (AID 492998); assay type: functional, VeroE6; details: Vero C1008
[2] = HepG2 cell cytotoxicity, dose response, cytotoxicity control for non-replicating M. tuberculosis project (AID 489018); assay type: functional; details: Mycobacterium tuberculosis
cells [3] = assay type: functional
[4] = THP-1 cell cytotoxicity, dose response, cytotoxicity control for non-replicating M. tuberculosis project (AID 489025); assay type: functional
[5] = molecular target: T1, DNA repair protein RAD52 homolog (Homo sapiens, UniProt P43351); assay type: functional, biochemical
T1 sequence (P43351 whole entry): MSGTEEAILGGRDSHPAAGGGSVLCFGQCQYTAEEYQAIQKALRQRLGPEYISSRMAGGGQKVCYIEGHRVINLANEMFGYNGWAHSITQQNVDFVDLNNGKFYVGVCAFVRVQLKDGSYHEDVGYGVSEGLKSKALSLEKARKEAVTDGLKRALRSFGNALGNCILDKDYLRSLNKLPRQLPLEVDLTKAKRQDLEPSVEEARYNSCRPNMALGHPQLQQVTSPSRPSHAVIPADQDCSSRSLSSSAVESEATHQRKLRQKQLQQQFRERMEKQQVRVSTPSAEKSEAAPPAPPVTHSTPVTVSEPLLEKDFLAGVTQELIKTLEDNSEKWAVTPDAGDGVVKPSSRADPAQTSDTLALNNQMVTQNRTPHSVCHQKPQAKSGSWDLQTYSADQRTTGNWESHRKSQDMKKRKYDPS

[6] = Luminescence Cell-Based Dose Confirmation HTS to Identify Activators of 5'UTR Stem-Loop Driven Alpha-Synuclein mRNA Translation in H4 Neuroglioblastoma Cells. [Related pubchem assays: 1829 (Project Summary), 1814 (Primary HTS)]; assay type: functional
[7] = Luminescence Cell-Based Dose Response HTS to Identify Activators of Luciferase Translation or Activity in H4 […] Cells. [Related pubchem assays: 1829 (Project Summary), 1814 (Primary HTS)]; assay type: functional
H4 = test: Luminescence Cell-Based Dose Response HTS to Identify Activators of 5'UTR Stem-Loop Driven Prion Protein mRNA Translation in H4 Neuroglioblastoma Cells. [Related pubchem assays: 1829 (Project Summary), 1814 (Primary HTS)]; assay type: functional; details: Homo sapiens
Cytochrome P450 1A2 = molecular target: T2, Cytochrome P450 1A2 (Homo sapiens, UniProt P05177);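 further: PubChem cytochrome P450 panel assay, CYP1A2 panel member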
T2 sequence (P05177 whole entry): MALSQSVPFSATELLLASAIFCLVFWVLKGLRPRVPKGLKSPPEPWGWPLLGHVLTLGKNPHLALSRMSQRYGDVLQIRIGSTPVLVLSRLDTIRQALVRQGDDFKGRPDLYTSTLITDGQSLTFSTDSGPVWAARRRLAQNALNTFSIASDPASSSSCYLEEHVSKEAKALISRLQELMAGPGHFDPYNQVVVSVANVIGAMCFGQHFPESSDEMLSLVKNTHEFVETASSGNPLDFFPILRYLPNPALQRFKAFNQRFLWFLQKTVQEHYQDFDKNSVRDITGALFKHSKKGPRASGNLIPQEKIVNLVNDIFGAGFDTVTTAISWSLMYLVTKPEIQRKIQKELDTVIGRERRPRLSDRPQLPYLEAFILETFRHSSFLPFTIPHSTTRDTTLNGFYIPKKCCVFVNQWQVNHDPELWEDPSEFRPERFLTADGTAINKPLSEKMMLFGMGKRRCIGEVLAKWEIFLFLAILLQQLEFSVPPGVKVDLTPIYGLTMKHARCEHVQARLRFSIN

Cytochrome P450 3A4 = Cytochrome P450 3A4 (Homo sapiens, UniProt P08684);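 further: CYP3A4 tested as one member of a cytochrome P450 panel screen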
[8] = test system: Streptococcus sp. 'group A'; test: growth inhibition of control SK(-) GAS strain, dose response, counter-screen for streptokinase expression inhibitor project, luminescence, kanamycin, BacTiterGlo, confirmation (AID 1900); assay type: functional, organism-based
[9] = C. albicans growth with fluconazole, confirmation, fluorescence, retest (AID 2467); assay type: functional, cell-based
Aminopeptidase N = molecular target: T3, Aminopeptidase N (Plasmodium falciparum FcB1/Columbia, UniProt O96935); test: P. falciparum M1AAP inhibitors, biochemical, fluorogenic H-Leu-NHMec substrate, 1536-well (AID 1445); design: species or system Plasmodium falciparum 3D7, 3D7
T3 sequence (O96935 whole entry): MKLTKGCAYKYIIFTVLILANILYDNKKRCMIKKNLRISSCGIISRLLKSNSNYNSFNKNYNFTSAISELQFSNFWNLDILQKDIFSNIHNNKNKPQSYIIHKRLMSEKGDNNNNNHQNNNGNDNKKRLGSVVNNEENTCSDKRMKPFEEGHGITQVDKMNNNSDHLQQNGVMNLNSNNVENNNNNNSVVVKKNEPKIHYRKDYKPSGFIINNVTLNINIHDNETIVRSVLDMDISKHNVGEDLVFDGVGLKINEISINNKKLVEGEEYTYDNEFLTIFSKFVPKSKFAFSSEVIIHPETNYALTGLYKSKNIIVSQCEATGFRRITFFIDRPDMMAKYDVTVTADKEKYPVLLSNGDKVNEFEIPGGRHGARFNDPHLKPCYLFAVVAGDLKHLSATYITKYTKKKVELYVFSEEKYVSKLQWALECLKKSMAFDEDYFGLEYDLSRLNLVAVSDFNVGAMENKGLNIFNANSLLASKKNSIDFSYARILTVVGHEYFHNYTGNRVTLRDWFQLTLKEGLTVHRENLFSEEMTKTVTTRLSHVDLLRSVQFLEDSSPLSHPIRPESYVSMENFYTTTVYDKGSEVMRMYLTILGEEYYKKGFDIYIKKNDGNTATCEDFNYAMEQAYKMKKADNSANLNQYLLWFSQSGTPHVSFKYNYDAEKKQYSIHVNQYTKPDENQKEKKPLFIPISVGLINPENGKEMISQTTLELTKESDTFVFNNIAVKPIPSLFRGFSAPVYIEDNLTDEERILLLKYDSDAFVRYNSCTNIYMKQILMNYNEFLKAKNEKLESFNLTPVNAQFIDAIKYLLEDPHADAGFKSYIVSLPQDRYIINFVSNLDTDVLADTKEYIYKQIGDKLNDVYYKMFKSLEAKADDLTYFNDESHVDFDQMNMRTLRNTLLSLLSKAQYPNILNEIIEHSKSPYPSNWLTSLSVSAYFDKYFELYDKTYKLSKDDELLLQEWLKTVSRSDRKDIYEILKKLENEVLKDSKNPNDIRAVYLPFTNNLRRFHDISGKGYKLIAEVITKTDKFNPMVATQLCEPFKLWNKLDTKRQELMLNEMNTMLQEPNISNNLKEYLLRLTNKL

cells [10] = assay type: functional, cell-based
[11] = molecular target: T4, Microphthalmia-associated transcription factor (Homo sapiens, UniProt O75030); test: TRPM1 promoter luciferase signal decrease, dose response, MITF inhibitor project, cell-based, SK-MEL-5, cherry-picked, set 3 (AID 493073); assay type: functional
T4 sequence (O75030 whole entry): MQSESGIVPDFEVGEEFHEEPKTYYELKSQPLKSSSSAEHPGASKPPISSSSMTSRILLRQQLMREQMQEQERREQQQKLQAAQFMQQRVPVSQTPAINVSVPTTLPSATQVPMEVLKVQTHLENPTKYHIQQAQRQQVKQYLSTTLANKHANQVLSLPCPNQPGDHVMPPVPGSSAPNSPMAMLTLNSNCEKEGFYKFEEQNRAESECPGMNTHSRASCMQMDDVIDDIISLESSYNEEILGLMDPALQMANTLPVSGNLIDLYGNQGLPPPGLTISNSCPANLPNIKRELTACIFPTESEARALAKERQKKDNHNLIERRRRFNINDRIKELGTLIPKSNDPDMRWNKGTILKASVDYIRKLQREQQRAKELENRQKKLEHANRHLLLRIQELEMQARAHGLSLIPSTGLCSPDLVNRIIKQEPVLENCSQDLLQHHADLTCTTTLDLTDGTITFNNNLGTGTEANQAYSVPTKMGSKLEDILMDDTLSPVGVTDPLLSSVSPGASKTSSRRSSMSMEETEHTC

Streptococcus = test: Group A Streptococcus viability loss, dose response, counter-screen for streptokinase expression inhibitor project, luminescence, BacTiterGlo (AID 1915); assay type: functional, organism-based;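 further: potency for reduction of bacterial viability or growth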
[12] = NIH-3T3 fibroblast cytotoxicity, dose response, cytotoxicity control, cell-based, fluorescence, Alamar Blue, secondary assay (AID 2327); assay type: functional;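 further: NIH-3T3 mouse fibroblasts cultured with fluconazole at 8 µg/mL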
cells [13] = assay type: functional, cell-based; remark: listed apart in the source
INS1 = test: beta cell apoptosis inhibitors, cytokine rescue, dose response, luminescence, retest (AID 449756); assay type: functional, cell-based; details: Rattus norvegicus;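 further: cell death triggered by IL-1 beta plus TNF-alpha plus IFN-gamma mixture; protective hits raise ATP signal compared with cytokine alone wells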
[14] = molecular target: Glyceraldehyde-3-phosphate dehydrogenase (Homo sapiens, UniProt P04406)
[15] = molecular target: T5, Rac GTPase-activating protein 1 (Homo sapiens, UniProt Q9H0H5); test: MgcRacGAP GTPase-activating activity inhibitors, confirmation, biochemical, ADP Hunter fluorescence, primary and confirmatory (AID 624330); assay type: functional
T5 sequence (Q9H0H5 whole entry): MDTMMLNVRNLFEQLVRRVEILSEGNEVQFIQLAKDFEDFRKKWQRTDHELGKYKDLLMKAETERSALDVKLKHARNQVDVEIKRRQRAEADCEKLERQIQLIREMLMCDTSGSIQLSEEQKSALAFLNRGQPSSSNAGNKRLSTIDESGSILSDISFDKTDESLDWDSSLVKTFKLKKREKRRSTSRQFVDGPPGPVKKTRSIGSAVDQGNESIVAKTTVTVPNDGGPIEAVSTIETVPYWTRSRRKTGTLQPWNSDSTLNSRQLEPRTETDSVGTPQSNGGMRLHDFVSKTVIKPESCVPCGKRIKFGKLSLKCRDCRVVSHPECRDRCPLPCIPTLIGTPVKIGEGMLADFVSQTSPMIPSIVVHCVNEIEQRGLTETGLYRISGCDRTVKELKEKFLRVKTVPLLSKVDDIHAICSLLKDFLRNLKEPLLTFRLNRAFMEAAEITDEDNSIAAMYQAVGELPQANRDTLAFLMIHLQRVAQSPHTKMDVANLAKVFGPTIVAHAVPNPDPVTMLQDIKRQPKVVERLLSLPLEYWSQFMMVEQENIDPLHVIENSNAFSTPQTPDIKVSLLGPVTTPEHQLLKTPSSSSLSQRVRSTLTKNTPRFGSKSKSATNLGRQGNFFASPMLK

[16] = molecular target: T6, Alkaline phosphatase, tissue-nonspecific isozyme (Homo sapiens, UniProt P05186); test: human TNAP enzyme inhibitors, SAR follow-up, biochemical, luminescent, dose response (AID 1056)
T6 sequence (P05186 whole entry): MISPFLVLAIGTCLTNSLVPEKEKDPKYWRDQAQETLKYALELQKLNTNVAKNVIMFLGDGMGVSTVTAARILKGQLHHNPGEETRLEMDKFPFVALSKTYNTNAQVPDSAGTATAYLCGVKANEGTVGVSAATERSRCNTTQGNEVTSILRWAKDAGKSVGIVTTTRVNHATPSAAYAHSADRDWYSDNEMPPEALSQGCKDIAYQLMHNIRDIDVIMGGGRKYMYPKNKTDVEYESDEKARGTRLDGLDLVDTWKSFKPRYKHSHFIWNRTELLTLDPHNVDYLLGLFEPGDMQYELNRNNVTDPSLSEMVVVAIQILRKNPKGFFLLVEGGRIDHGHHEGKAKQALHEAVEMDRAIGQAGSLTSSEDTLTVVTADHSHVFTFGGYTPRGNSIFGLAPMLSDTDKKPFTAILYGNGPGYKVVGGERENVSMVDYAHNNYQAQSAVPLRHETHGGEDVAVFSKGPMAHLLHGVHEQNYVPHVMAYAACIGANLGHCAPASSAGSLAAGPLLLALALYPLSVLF

[17] = molecular target: Glucose-6-phosphate 1-dehydrogenase (Homo sapiens, UniProt P11413); test: human G6PD enzyme inhibitors, dose response, selectivity assay for P. falciparum G6PD inhibitor project, biochemical, fluorescence (AID 504792); assay type: functional
[18] = molecular target: Eukaryotic translation initiation factor 4E (Mus musculus, UniProt P63073); test: eIF4E–eIF4G protein interaction inhibitors, dose response, biochemical, TR-FRET (AID 855); assay type: functional;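 further: potency for disrupting eIF4E binding to eIF4GI seen as loss of FRET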
Genome polyprotein = Genome polyprotein (dengue virus type 2, UniProt P29990); test: Dengue-2 NS5 methyltransferase inhibitors, primary screen, biochemical, confirmation dose response (AID 588689); assay type: functional
Vero = Vero cell cytotoxicity, cytotoxicity control for flavivirus capping enzyme inhibitors (AID 588742); assay type: functional; details: Chlorocebus sabaeus

Glyceraldehyde-3-phosphate dehydrogenase, sequence (P04406 whole entry): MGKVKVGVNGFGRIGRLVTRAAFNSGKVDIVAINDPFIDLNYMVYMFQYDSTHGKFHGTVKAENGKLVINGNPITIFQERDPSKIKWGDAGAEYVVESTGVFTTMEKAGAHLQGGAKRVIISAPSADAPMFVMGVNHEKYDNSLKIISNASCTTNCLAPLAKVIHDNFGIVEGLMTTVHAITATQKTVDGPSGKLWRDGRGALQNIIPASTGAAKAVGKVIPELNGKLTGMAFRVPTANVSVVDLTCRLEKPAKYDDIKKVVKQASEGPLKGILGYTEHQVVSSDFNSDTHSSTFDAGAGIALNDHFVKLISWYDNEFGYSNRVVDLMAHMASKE
Eukaryotic translation initiation factor 4E, sequence (P63073 whole entry): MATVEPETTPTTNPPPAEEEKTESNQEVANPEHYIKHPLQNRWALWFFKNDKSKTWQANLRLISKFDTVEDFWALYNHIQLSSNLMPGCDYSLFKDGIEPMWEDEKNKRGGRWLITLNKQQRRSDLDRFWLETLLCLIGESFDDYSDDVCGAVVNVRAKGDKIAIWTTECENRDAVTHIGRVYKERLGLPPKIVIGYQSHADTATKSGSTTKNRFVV
Genome polyprotein, sequence (P29990 2492-3391 limits assumed): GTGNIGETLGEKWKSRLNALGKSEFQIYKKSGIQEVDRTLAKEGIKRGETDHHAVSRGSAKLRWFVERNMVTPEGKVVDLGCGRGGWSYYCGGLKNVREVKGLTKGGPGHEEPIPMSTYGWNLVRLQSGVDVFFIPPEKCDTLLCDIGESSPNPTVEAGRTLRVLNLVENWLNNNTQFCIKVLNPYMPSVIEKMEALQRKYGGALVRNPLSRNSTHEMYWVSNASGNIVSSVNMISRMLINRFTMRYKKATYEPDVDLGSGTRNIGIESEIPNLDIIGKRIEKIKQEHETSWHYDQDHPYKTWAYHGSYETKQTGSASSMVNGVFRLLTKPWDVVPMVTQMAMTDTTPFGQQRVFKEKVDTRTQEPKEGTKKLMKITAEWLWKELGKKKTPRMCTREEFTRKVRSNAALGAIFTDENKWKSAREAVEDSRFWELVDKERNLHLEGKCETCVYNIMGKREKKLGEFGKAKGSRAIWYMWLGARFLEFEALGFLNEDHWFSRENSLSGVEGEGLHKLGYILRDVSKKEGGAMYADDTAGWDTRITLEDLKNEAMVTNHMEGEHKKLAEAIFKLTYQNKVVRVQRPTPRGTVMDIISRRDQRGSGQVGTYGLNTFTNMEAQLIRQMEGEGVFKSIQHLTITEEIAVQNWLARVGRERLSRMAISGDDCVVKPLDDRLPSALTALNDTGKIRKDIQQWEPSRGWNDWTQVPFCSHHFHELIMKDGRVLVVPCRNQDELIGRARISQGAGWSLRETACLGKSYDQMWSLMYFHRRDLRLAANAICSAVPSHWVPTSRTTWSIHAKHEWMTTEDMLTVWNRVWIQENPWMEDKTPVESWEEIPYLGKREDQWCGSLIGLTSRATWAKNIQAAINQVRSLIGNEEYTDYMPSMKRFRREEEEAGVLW
Glucose-6-phosphate 1-dehydrogenase, sequence (P11413 whole entry): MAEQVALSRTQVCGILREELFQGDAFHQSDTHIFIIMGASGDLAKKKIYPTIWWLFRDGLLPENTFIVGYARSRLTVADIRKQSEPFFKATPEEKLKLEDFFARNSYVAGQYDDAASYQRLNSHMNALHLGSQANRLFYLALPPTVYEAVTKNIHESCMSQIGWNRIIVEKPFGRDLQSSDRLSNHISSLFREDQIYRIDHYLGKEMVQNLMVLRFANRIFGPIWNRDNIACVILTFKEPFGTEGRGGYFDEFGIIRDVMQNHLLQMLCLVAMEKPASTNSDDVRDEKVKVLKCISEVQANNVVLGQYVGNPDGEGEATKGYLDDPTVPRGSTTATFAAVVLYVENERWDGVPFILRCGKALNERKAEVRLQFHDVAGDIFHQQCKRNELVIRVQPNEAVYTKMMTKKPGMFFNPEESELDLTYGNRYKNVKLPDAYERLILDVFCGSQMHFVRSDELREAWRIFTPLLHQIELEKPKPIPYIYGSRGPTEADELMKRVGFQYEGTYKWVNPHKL
Cytochrome P450 3A4, sequence (P08684 whole entry): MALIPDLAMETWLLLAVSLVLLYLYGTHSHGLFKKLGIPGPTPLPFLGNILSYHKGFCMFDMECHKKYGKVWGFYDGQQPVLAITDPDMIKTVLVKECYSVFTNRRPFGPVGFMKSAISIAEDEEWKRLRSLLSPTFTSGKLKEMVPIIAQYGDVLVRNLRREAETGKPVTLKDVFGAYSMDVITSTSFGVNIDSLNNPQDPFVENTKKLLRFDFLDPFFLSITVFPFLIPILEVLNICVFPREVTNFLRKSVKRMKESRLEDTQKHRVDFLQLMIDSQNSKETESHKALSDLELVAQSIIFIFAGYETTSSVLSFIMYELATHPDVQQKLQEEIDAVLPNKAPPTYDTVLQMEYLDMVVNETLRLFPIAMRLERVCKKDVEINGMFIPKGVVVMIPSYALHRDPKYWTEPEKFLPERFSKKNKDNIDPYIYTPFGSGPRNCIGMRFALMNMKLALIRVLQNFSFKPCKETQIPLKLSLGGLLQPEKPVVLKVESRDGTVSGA

## CN(C)CC/C=C1\c2ccccc2Sc2cc(F)c(Cl)cc21
[1]
  CC50: > 20 µM (active)
[2]
  CC50: > 20 µM (active)
Cells [3]
  IC50: 20.8 µM (active)
[4]
  CC50: 17 µM (active)
[5]
  AC50: 15.1 µM (active)

## Cc1ccc(Oc2ncc(CN3CCOCC3)s2)cc1
[6]
  EC50: 13.1 µM (active)
[7]
  EC50: 13.1 µM (active)
H4
  EC50: 40.4 µM (active)
Cytochrome P450 1A2
  AC50: 22.4 µM (inconclusive)
Cytochrome P450 3A4
  AC50: 20 µM (inconclusive)

## Cc1nc(C)c(C(=O)N/N=C/c2cc(Br)ccc2O)s1
[8]
  EC50: 2.35 µM (active)
[9]
  EC50: 1.34 µM (active)
Aminopeptidase N
  IC50: 12.9 µM (active)
Cells [10]
  EC50: > 350 µM (not active)
[11]
  AC50: 3.66 µM (active)
Streptococcus
  EC50: 8.73 µM (active)
[12]
  EC50: > 150 µM (inactive)
Cells [13]
  EC50: 99.3 µM (active)
INS1
  AC50: 2.63 µM (active)

## O=C(CSc1nnc2ccc3ccccc3n12)N1CCOCC1
[6]
  EC50: > 120 µM (not active)
[7]
  EC50: 14.6 µM (active)
H4
  EC50: 14.4 µM (inconclusive)

## Cc1cc(C(=O)Nc2ccc(O)c(C(=O)O)c2)c(C)o1
[14]
  IC50: > 100 µM (not active)

## Cc1cc(C)nc(SCC(=O)c2ccc(O)c(O)c2)n1
[15]
  IC50: 30.6 µM (active)
[16]
  IC50: 5.76 µM (active)

## C/C(=N\NC(=O)c1nc2ccccn2c1C)c1ccco1
[6]
  EC50: 14.4 µM (active)
[7]
  EC50: > 120 µM (not active)
H4
  EC50: 15.7 µM (active)

## COc1cc(CNc2ccc(N3CCCC3)cc2)ccc1OCc1ccccc1F
[17]
  IC50: > 80 µM (inactive)
[18]
  IC50: > 64 µM (inactive)
Genome polyprotein
  IC50: 54.2 µM (active)
Vero
  CC50: > 40 µM (active)

## CCc1nccn1CCC(=O)N1CCCC(N2CCN(c3cccc(Cl)c3)CC2)C1 (stereo unspecified)
[6]
  EC50: > 120 µM (not active)
[7]
  EC50: 25.5 µM (active)
H4
  EC50: 16.3 µM (active)

## O=C1C(Cl)=C(N2CCN(Cc3ccccc3)CC2)C(=O)N1c1ccc(C(F)(F)F)cc1
[14]
  IC50: > 50 µM (inconclusive)
